In patent US11464770B2, “Anticancer pharmaceutical composition” (NATIONAL CANCER CENTER, priority 2016, dated 2022):
Read-outs that look alike come from different tables or passages of the source.

Test system: breast cancer cell lines (e.g. MDA-MB-231, SK-BR-3, MDA-MB-468, HCC1954)
Assay: Cell based assay, cell viability (CellTiter-Glo), breast cancer cell lines
Outline: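 72-hour continuous compound exposure, 0 to 2 μM final, begun one day after seeding; endpoint is ATP-based luminescent viability.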

[1] = Breast cancer cell line MDA-MB-231-L/DOX, 72 hours, CellTiter-Glo, read-out: IC50, MDA-MB-231-L/DOX
[2] = Homo sapiens, Breast cancer cell line BT-20, 72 hours, CellTiter-Glo, read-out: IC50, BT-20
[3] = Homo sapiens, Breast cancer cell line HCC1395, 72 hours, CellTiter-Glo, read-out: IC50, HCC1395
[4] = Homo sapiens, Breast cancer cell line HCC1954, 72 hours, CellTiter-Glo, read-out: IC50, HCC1954
[5] = Homo sapiens, Breast cancer cell line JIMT-1, 72 hours, CellTiter-Glo, read-out: IC50, JIMT-1
[6] = Homo sapiens, Breast cancer cell line MCF7, 72 hours, CellTiter-Glo, read-out: IC50, MCF7
[7] = Homo sapiens, Breast cancer cell line MDA-MB-231, 72 hours, CellTiter-Glo, read-out: IC50, MDA-MB-231
[8] = Homo sapiens, Breast cancer cell line MDA-MB-468, 72 hours, CellTiter-Glo, read-out: IC50, MDA-MB-468
[9] = Homo sapiens, Breast cancer cell line SK-BR-3, 72 hours, CellTiter-Glo, read-out: IC50, SK-BR-3
[10] = Homo sapiens, BT-20 cells, 72 hours treatment, CellTiter-Glo cell viability, read-out: IC50, Breast cancer cell line BT-20
[11] = Homo sapiens, HCC1395 cells, 72 hours treatment, CellTiter-Glo cell viability, read-out: IC50, Breast cancer cell line HCC1395
[12] = Homo sapiens, HCC1954 cells, 72 hours treatment, CellTiter-Glo cell viability, read-out: IC50, Breast cancer cell line HCC1954
[13] = Homo sapiens, JIMT-1 cells, 72 hours treatment, CellTiter-Glo cell viability, read-out: IC50, Breast cancer cell line JIMT-1
[14] = Homo sapiens, MCF7 cells, 72 hours treatment, CellTiter-Glo cell viability, read-out: IC50, Breast cancer cell line MCF7
[15] = Homo sapiens, MDA-MB-231 cells, 72 hours treatment, CellTiter-Glo cell viability, read-out: IC50, Breast cancer cell line MDA-MB-231
[16] = Homo sapiens, MDA-MB-468 cells, 72 hours treatment, CellTiter-Glo cell viability, read-out: IC50, Breast cancer cell line MDA-MB-468
[17] = Homo sapiens, SK-BR-3 cells, 72 hours treatment, CellTiter-Glo cell viability, read-out: IC50, Breast cancer cell line SK-BR-3
[18] = MDA-MB-231-L/DOX cells, 72 hours treatment, CellTiter-Glo cell viability, read-out: IC50, Breast cancer cell line MDA-MB-231-L/DOX

Row | Compound | IC50 [1] | IC50 [2] | IC50 [3] | IC50 [4] | IC50 [5] | IC50 [6] | IC50 [7] | IC50 [8] | IC50 [9] | IC50 [10] | IC50 [11] | IC50 [12] | IC50 [13] | IC50 [14] | IC50 [15] | IC50 [16] | IC50 [17] | IC50 [18]
1 | CC(C)C(=O)c1c([S+]([O-])Cc2ccc(SC(F)(F)F)cc2)[nH]c2c(F)ccc(F)c2c1=O (stereo not drawn) [Compound 85, 5,8-difluoro-3-isobutyryl-2-((4-((trifluoromethyl)thio)benzyl)sulfinyl)quinolin-4(1H)-one] |  |  |  |  |  |  |  |  |  | > 2000 nM | > 10000 nM | > 2000 nM | > 10000 nM | > 2000 nM | > 2000 nM | > 2000 nM | > 2000 nM | > 2000 nM
2 | CC(=O)c1c([S+]([O-])CN2C(=O)c3ccccc3C2=O)[nH]c2c(Cl)ccc(Cl)c2c1=O (stereo not drawn) [Compound 90, 2-(((3-acetyl-5,8-dichloro-4-oxo-1,4-dihydroquinolin-2-yl)sulfinyl)methyl)isoindoline-1,3-dione] |  |  |  |  |  |  |  |  |  | > 2000 nM | > 10000 nM | > 2000 nM | > 10000 nM | > 2000 nM | > 2000 nM | > 2000 nM | > 2000 nM | > 2000 nM
3 | CC(=O)c1c([S+]([O-])Cc2ccc(-n3cccn3)nc2)[nH]c2c(Br)ccc(Cl)c2c1=O (stereo not drawn) [Compound 99, 2-(((6-(1H-pyrazol-1-yl)pyridin-3-yl)methyl)sulfinyl)-3-acetyl-8-bromo-5-chloroquinolin-4(1H)-one] |  |  |  |  |  |  |  |  |  | > 2000 nM | > 2000 nM | 780 nM | > 10000 nM | > 2000 nM | 1170 nM | 670 nM | 670 nM | > 2000 nM
4 | CC(=O)c1c([S+]([O-])Cc2ccc(SC(F)(F)F)cc2)[nH]c2c(Cl)ccc(Cl)c2c1=O (stereo not drawn) [Compound 79, 3-acetyl-5,8-dichloro-2-((4-((trifluoromethyl)thio)benzyl)sulfinyl)quinolin-4(1H)-one] | > 2000 nM | > 2000 nM | > 10000 nM | > 2000 nM | > 10000 nM | > 2000 nM | > 2000 nM | > 2000 nM | > 2000 nM |  |  |  |  |  |  |  |  | 
5 | CSc1c(C(C)=O)c(=O)c2c(Cl)ccc(Br)c2n1S(C)(=O)=O [Compound 35, 3-acetyl-8-bromo-5-chloro-1-(methylsulfonyl)-2-(methylthio)quinolin-4(1H)-one] | > 2000 nM | > 2000 nM | > 10000 nM | > 2000 nM | > 10000 nM | > 2000 nM | > 2000 nM | > 2000 nM | > 2000 nM |  |  |  |  |  |  |  |  | 
6 | COc1cccc2[nH]c([S+]([O-])Cc3ccc(S(F)(F)(F)(F)F)cc3)c(C(C)=O)c(=O)c12 (stereo not drawn) [Compound 93, 3-acetyl-5-methoxy-2-((4-(pentafluoro--sulfanyl)benzyl)sulfinyl)quinolin-4(1H)-one] |  |  |  |  |  |  |  |  |  | > 2000 nM | > 10000 nM | > 2000 nM | > 10000 nM | > 2000 nM | > 2000 nM | > 2000 nM | > 2000 nM | > 2000 nM
7 | CC(=O)c1c([S+]([O-])Cc2nonc2C)[nH]c2c(Br)ccc(Cl)c2c1=O (stereo not drawn) [Compound 106, 3-acetyl-8-bromo-5-chloro-2-(((4-methyl-1,2,5-oxadiazol-3-yl)methyl)sulfinyl)quinolin-4(1H)-one] |  |  |  |  |  |  |  |  |  | > 2000 nM | > 10000 nM | > 2000 nM | > 10000 nM | > 2000 nM | > 2000 nM | > 2000 nM | > 2000 nM | > 2000 nM
8 | CC(=O)c1c([S+]([O-])Cc2ccc(S(F)(F)(F)(F)F)cc2)[nH]c2c(Br)ccc(Cl)c2c1=O (stereo not drawn) [Compound 68, 3-acetyl-8-bromo-5-chloro-2-((4-(pentafluoro-16-sulfanyl)benzyl)sulfinyl)quinolin-4(1H)-one] | > 2000 nM | > 2000 nM | > 10000 nM | > 2000 nM | > 10000 nM | > 2000 nM | 1220 nM | > 2000 nM | 1230 nM |  |  |  |  |  |  |  |  | 
9 | CSc1c(C(C)=O)c(=O)c2c(Cl)ccc(Br)c2n1C [Compound 5, 3-acetyl-8-bromo-5-chloro-1-methyl-2-(methylthio)quinolin-4(1H)-one] | > 2000 nM | > 2000 nM | > 10000 nM | > 2000 nM | > 10000 nM | > 2000 nM | > 2000 nM | > 2000 nM | > 2000 nM |  |  |  |  |  |  |  |  | 

Continued, values first:

Row | IC50 [1] | IC50 [2] | IC50 [3] | IC50 [4] | IC50 [5] | IC50 [6] | IC50 [7] | IC50 [8] | IC50 [9] | IC50 [10] | IC50 [11] | IC50 [12] | IC50 [13] | IC50 [14] | IC50 [15] | IC50 [16] | IC50 [17] | IC50 [18] | Compound
10 | > 2000 nM | > 2000 nM | > 10000 nM | > 2000 nM | > 10000 nM | > 2000 nM | > 2000 nM | > 2000 nM | > 2000 nM |  |  |  |  |  |  |  |  |  | CC(=O)c1c(Sc2ccc(Br)cc2)[nH]c2c(Br)ccc(Cl)c2c1=O [Compound 16, 3-acetyl-8-bromo-2-((4-bromophenyl)thio)-5-chloroquinolin-4(1H)-one]
11 | > 2000 nM | > 2000 nM | > 10000 nM | > 2000 nM | > 10000 nM | > 2000 nM | > 2000 nM | > 2000 nM | > 2000 nM |  |  |  |  |  |  |  |  |  | CC(=O)c1c([S+]([O-])C(C)c2ccccc2)[nH]c2c(Br)ccc(Cl)c2c1=O (stereo not drawn) [Compound 26, 3-acetyl-8-bromo-5-chloro-2-((1-phenylethyl)sulfinyl)quinolin-4(1H)-one]
12 | > 2000 nM | > 2000 nM | > 10000 nM | > 2000 nM | > 10000 nM | > 2000 nM | > 2000 nM | > 2000 nM | > 2000 nM |  |  |  |  |  |  |  |  |  | CC(=O)c1c([S+]([O-])c2ccccc2)[nH]c2c(Br)ccc(Cl)c2c1=O (stereo not drawn) [Compound 13, 3-acetyl-8-bromo-5-chloro-2-(phenylsulfinyl)quinolin-4(1H)-one]
13 | > 2000 nM | > 2000 nM | > 10000 nM | > 2000 nM | > 10000 nM | > 2000 nM | > 2000 nM | > 2000 nM | > 2000 nM |  |  |  |  |  |  |  |  |  | COc1ccccc1Sc1[nH]c2c(Br)ccc(Cl)c2c(=O)c1C(C)=O [Compound 14, 3-acetyl-8-bromo-5-chloro-2-((2-methoxyphenyl)thio)quinolin-4(1H)-one]
14 | > 2000 nM | > 2000 nM | > 10000 nM | > 2000 nM | > 10000 nM | > 2000 nM | > 2000 nM | > 2000 nM | > 2000 nM |  |  |  |  |  |  |  |  |  | CC(=O)c1c(SCc2cccc(F)c2)[nH]c2c(Br)ccc(Cl)c2c1=O [Compound 49, 3-acetyl-8-bromo-5-chloro-2-((3-fluorobenzyl)thio)quinolin-4(1H)-one]
15 | > 2000 nM | > 2000 nM | > 10000 nM | > 2000 nM | > 10000 nM | > 2000 nM | > 2000 nM | > 2000 nM | > 2000 nM |  |  |  |  |  |  |  |  |  | CC(=O)c1c([S+]([O-])Cc2ccc(Cl)cc2)[nH]c2c(Br)ccc(Cl)c2c1=O (stereo not drawn) [Compound 11, 3-acetyl-8-bromo-5-chloro-2-((4-chlorobenzyl)sulfinyl)quinolin-4(1H)-one]
16 |  |  |  |  |  |  |  |  |  | > 2000 nM | > 10000 nM | 1050 nM | > 10000 nM | > 2000 nM | 1540 nM | 1460 nM | 930 nM | > 2000 nM | CC(=O)c1c([S+]([O-])Cc2ccc(Cl)nc2)[nH]c2c(Br)ccc(Cl)c2c1=O (stereo not drawn) [Compound 104, 3-acetyl-8-bromo-5-chloro-2-(((6-chloropyridin-3-yl)methyl)sulfinyl)quinolin-4(1H)-one]
17 | > 2000 nM | > 2000 nM | > 10000 nM | > 2000 nM | > 10000 nM | > 2000 nM | > 2000 nM | > 2000 nM | > 2000 nM |  |  |  |  |  |  |  |  |  | CC(=O)c1c(S)[nH]c2c(Br)ccc(Cl)c2c1=O [Compound 62, 3-acetyl-8-bromo-5-chloro-2-mercaptoquinolin-4(1H)-one]
18 | > 2000 nM | > 2000 nM | > 10000 nM | > 2000 nM | > 10000 nM | > 2000 nM | > 2000 nM | > 2000 nM | > 2000 nM |  |  |  |  |  |  |  |  |  | CC(=O)c1c(SCc2cc(Cl)ccc2Cl)[nH]c2c(Br)ccc(Cl)c2c1=O [Compound 43, 3-acetyl-8-bromo-5-chloro-2-((2,5-dichlorobenzyl)thio)quinolin-4(1H)-one]
19 | > 2000 nM | > 2000 nM | > 10000 nM | > 2000 nM | > 10000 nM | > 2000 nM | > 2000 nM | > 2000 nM | 620 nM |  |  |  |  |  |  |  |  |  | CC(=O)c1c([S+]([O-])Cc2ccccc2C#N)[nH]c2c(Br)ccc(Cl)c2c1=O (stereo not drawn) [Compound 58, 2-(((3-acetyl-8-bromo-5-chloro-4-oxo-1,4-dihydroquinolin-2-yl)sulfinyl)methyl)benzonitrile]
20 | > 2000 nM | > 2000 nM | > 10000 nM | > 2000 nM | > 10000 nM | > 2000 nM | > 2000 nM | > 2000 nM | > 2000 nM |  |  |  |  |  |  |  |  |  | CC(=O)c1c([S+]([O-])c2ccc(Br)cc2)[nH]c2c(Br)ccc(Cl)c2c1=O (stereo not drawn) [Compound 17, 3-acetyl-8-bromo-2-((4-bromophenyl)sulfinyl)-5-chloroquinolin-4(1H)-one]
21 | > 2000 nM | > 2000 nM | > 10000 nM | > 2000 nM | > 10000 nM | > 2000 nM | > 2000 nM | > 2000 nM | > 2000 nM |  |  |  |  |  |  |  |  |  | CSc1[nH]c2c(Br)ccc(Cl)c2c(=O)c1C(C)=O [Compound 2, 3-acetyl-8-bromo-5-chloro-2-(methylthio)quinolin-4(1H)-one]
